In test [1] the target is T1, CDK2 (Homo sapiens, UniProt P24941).
T1 construct: High-Throughput Measurement of Cellular Endogenous CDK2; endogenous in cells; host or cells: OVCAR3
Briefly: Inhibition of CDK2: phospho-Rb (S807/811) HTRF measurement in OVCAR3 cells, 24 h. The test is classed as cell-based. The following applies: 24 h compound treatment, read-out: pRB_OVCAR3_24h. Summed up: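 IC50 came from a four-parameter fit of DMSO-normalized TR-FRET ratios (665/620 nm) reporting phospho-Rb S807/811. Lysates were taken from OVCAR3 cultures treated 24 h with compound (0.3 to 10,000 nM) and incubated 4 h at room temperature with the antibody pair.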

The target in test [2] is T1, CDK2. Put plainly: High-throughput HTRF measurement of cellular endogenous CDK2 level (degradation, DC50/Dmax) in OVCAR3 cells, 6 h. It counts as cell-based. The following applies: 6 h compound treatment, HTRF total CDK2, read-out: DC50_OVCAR3_6h. In a few lines: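 DC50 and Dmax were derived by four-parameter logistic fit of the […] TR-FRET ratio, scaled between DMSO (0% degradation) and lysis buffer (100%) controls. The ratio came from an HTRF total-CDK2 sandwich immunoassay on lysates of OVCAR3 cells given 0.03–1,000 nM compound for 6 hours.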

SMILES strings stand for the structures.

Consider `Cn1c(=O)n(C2CCC(=O)NC2=O)c2c(F)ccc(C3CCN(CC4CCN(c5cc(S(=O)(=O)N6CCC(Nc7ncc(Cl)cn7)CC6)ccc5C#N)CC4)CC3)c21` (centres unmarked) [Example 220, 4-((4-((5-chloropyrimidin-2-yl)amino)piperidin-1-yl)sulfonyl)-2-(4-((4-(1-(2,6-dioxopiperidin-3-yl)-7-fluoro-3-methyl-2-oxo-2,3-dihydro-1H-benzo[d]imidazol-4-yl)piperidin-1-yl)methyl)piperidin-1-yl)benzonitrile], for which the IC50 at CDK2 [1] is 1 to 100 nM. Also, the DC50 on CDK2 [2] lay within 10 to 100 nM.

For the compound `O=C1CCN(c2noc3cc(C4CCN(CC5CCN(c6cccc(S(=O)(=O)N7CCC(Nc8ncc(Cl)cn8)CC7)c6)CC5)CC4)ccc23)C(=O)N1` [Example 221, 1-(6-(1-((1-(3-((4-((5-chloropyrimidin-2-yl)amino)piperidin-1-yl)sulfonyl)phenyl)piperidin-4-yl)methyl)piperidin-4-yl)benzo[d]isoxazol-3-yl)dihydropyrimidine-2,4(1H,3H)-dione], at CDK2 [1], the IC50 lay in the range of 1 to 100 nM. In addition, on CDK2 [2], the DC50 was 1 to 10 nM.

`O=C1CCN(c2noc3cc(C4CCN(CC5CCN(c6cccc(S(=O)(=O)N7CCC(Nc8ncc(C(F)(F)F)cn8)CC7)c6)CC5)CC4)ccc23)C(=O)N1` [Example 222, 1-(6-(1-((1-(3-((4-((5-(trifluoromethyl)pyrimidin-2-yl)amino)piperidin-1-yl)sulfonyl)phenyl)piperidin-4-yl)methyl)piperidin-4-yl)benzo[d]isoxazol-3-yl)dihydropyrimidine-2,4(1H,3H)-dione]: the IC50 at CDK2 [1] is 1 to 100 nM. For the same compound, at CDK2 [2], the DC50 fell in the range of 1 to 10 nM.

Regarding `Cn1nc(N2CCC(=O)NC2=O)c2ccc(C3CCC(CN4CCN(c5cccc(S(=O)(=O)N6CCC(Nc7ncc(Cl)cn7)CC6)c5)CC4)CC3)cc21` (centres unmarked) [Example 224, 1-(6-(4-((4-(3-((4-((5-chloropyrimidin-2-yl)amino)piperidin-1-yl)sulfonyl)phenyl)piperazin-1-yl)methyl)cyclohexyl)-1-methyl-1H-indazol-3-yl)dihydropyrimidine-2,4(1H,3H)-dione], the IC50 on CDK2 [1] lay within 1 to 100 nM. For the same compound, on CDK2 [2], the DC50 was 10 to 100 nM.

As to `Cn1nc(N2CCC(=O)NC2=O)c2ccc(C3CCN(CC#Cc4cccc(S(=O)(=O)N5CCC(Nc6ncc(Cl)cn6)CC5)c4)CC3)cc21` [Example 226, 1-(6-(1-(3-(3-((4-((5-chloropyrimidin-2-yl)amino)piperidin-1-yl)sulfonyl)phenyl)prop-2-yn-1-yl)piperidin-4-yl)-1-methyl-1H-indazol-3-yl)dihydropyrimidine-2,4(1H,3H)-dione], the IC50 on CDK2 [1] is 100 to 500 nM. Also, at CDK2 [2], the DC50 fell in the range of 10 to 100 nM.

For the compound `Cn1nc(N2CCC(=O)NC2=O)c2ccc(C3CCN(CC4CCN(c5cccc(S(=O)(=O)N6CCC(Nc7ncc(Cl)cn7)CC6)c5)C(=O)C4)CC3)cc21` (centres unmarked) [Example 234, 1-(6-(1-((1-(3-((4-((5-chloropyrimidin-2-yl)amino)piperidin-1-yl)sulfonyl)phenyl)-2-oxopiperidin-4-yl)methyl)piperidin-4-yl)-1-methyl-1H-indazol-3-yl)dihydropyrimidine-2,4(1H,3H)-dione], the IC50 on CDK2 [1] was in the range of 1 to 100 nM. Besides, the DC50 on CDK2 [2] lay in the range of 1 to 10 nM.

Consider `Cn1nc(N2CCC(=O)NC2=O)c2ccc(C3CCC(CN4CCC(c5cccc(S(=O)(=O)N6CCC(Nc7ncc(C(F)(F)F)cn7)CC6)c5)CC4)CC3)cc21` (centres unmarked) [Example 238, 1-(1-methyl-6-(4-((4-(3-((4-((5-(trifluoromethyl)pyrimidin-2-yl)amino)piperidin-1-yl)sulfonyl)phenyl)piperidin-1-yl)methyl)cyclohexyl)-1H-indazol-3-yl)dihydropyrimidine-2,4(1H,3H)-dione], for which, at CDK2 [1], the IC50 lay within 1 to 100 nM. Also, at CDK2 [2], the DC50 fell in the range of 10 to 100 nM.
